From US20100267561A1, “HERBICIDAL PYRIDAZINONE DERIVATIVES” (priority 2007, published 2010)
Like-named read-outs stand apart in the source and are kept apart here.

Columns and labels:
Type in all cases: in vivo
[1] = tested on: windgrass (Apera spica-venti); assay: Test B postemergence plant response; details: Postemergence
How it was run: (§1)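 Visual injury ratings on a 0–100 scale, where 100 means complete control, were made 13 to 15 days after postemergence treatment of greenhouse-grown plants at the 1- to 4-leaf stage.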

[2] = tested on: chickweed (Stellaria media); assay: Test B postemergence plant response; details: Postemergence
How it was run: as §1

[3] = tested on: canarygrass (Phalaris minor); assay: Test B postemergence plant response; details: Postemergence
How it was run: as §1

[4] = tested on: winter barley (Hordeum vulgare); assay: Test B postemergence plant response; details: Postemergence
How it was run: as §1

[5] = tested on: umbrella sedge (Cyperus difformis); assay: Test B flooded paddy test plant response; details: Cyperus difformis, read-out: Plant response rating, Sedge, Umbrella
How it was run: (§2)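 Step one: raise plants to 2 leaves. Step two: flood pots 3 cm over the soil and apply compound into the water, keeping this depth. Step three: after 13–15 greenhouse days, score visually versus controls, 0–100, where 100 means complete control.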

[6] = tested on: rice (Oryza sativa); assay: Test B flooded paddy test plant response; details: Oryza sativa, read-out: Plant response rating, Rice
How it was run: as §2

[7] = tested on: barnyardgrass (Echinochloa crus-galli); assay: Test B flooded paddy test plant response; details: Echinochloa crus-galli, read-out: Plant response rating, Barnyardgrass
How it was run: as §2

[8] = tested on: ducksalad (Heteranthera limosa); assay: Test B flooded paddy test plant response; details: Heteranthera limosa, read-out: Plant response rating, Ducksalad
How it was run: as §2

[9] = tested on: large crabgrass (Digitaria sanguinalis); assay: Test A pre-/postemergence plant response; details: Digitaria sanguinalis, 240 h, read-out: Plant response rating, Crabgrass, Large; for pest or weed control at 125 g/ha: 125 g ai/ha; for pest or weed control at 500 g/ha: 500 g ai/ha
How it was run: (§3)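 Greenhouse pot test: loam–sand soil; pre- and postemergence sprays applied same day; post plants 2–10 cm, 1–2 leaves. Readout ~10 d, visual % injury vs untreated (0 = none, 100 = complete control).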

[10] = tested on: giant foxtail (Setaria faberi); assay: Test A pre-/postemergence plant response; details: Setaria faberi, 240 h, read-out: Plant response rating, Foxtail, Giant; for pest or weed control at 125 g/ha: 125 g ai/ha; for pest or weed control at 500 g/ha: 500 g ai/ha
How it was run: as §3

[11] = tested on: velvetleaf (Abutilon theophrasti); assay: Test A pre-/postemergence plant response
How it was run: as §3

[12] = tested on: corn (Zea mays); assay: Test A pre-/postemergence plant response; details: Zea mays, 240 h; for Corn plant response rating (crop injury, 0 = no effect, 100 = complete kill) at 125 g/ha: 125 g ai/ha; for Corn plant response rating (crop injury, 0 = no effect, 100 = complete kill) at 500 g/ha: 500 g ai/ha
How it was run: as §3

[13] = tested on: morningglory (Ipomoea coccinea); assay: Test A pre-/postemergence plant response
How it was run: as §3

[14] = tested on: barnyardgrass (Echinochloa crus-galli); assay: Test A pre-/postemergence plant response; details: Echinochloa crus-galli, 240 h, read-out: Plant response rating, Barnyardgrass; for pest or weed control at 125 g/ha: 125 g ai/ha; for pest or weed control at 500 g/ha: 500 g ai/ha
How it was run: as §3

[15] = tested on: pigweed (Amaranthus retroflexus); assay: Test A pre-/postemergence plant response; details: Amaranthus retroflexus, 240 h, read-out: Plant response rating, Pigweed; for pest or weed control at 125 g/ha: 125 g ai/ha; for pest or weed control at 500 g/ha: 500 g ai/ha
How it was run: as §3

[16] = 31 g ai/ha, scale 0 to 100, 0 no effect, 100 complete control
[17] = Flood (flooded paddy test), 62 g ai/ha, scale 0 to 100, 0 no effect, 100 complete control
[18] = Flood (flooded paddy test), 125 g ai/ha, scale 0 to 100, 0 no effect, 100 complete control
[19] = Flood (flooded paddy test), 250 g ai/ha, scale 0 to 100, 0 no effect, 100 complete control
[20] = Flood, 31 g ai/ha, scale 0 to 100
[21] = post-emergence, Postemergence, 0 to 100 scale, 0 no effect, 100 complete control
[22] = pre-emergence, Preemergence, 0 to 100 scale (0 no effect, 100 complete control)
[23] = Postemergence, 125 g ai/ha, 0 to 100 scale, 0 no effect, 100 complete control
[24] = Postemergence, 500 g ai/ha, 0 to 100 scale, 0 no effect, 100 complete control
[25] = Preemergence, 125 g ai/ha, 0 to 100 scale (0 no effect, 100 complete control)
[26] = Preemergence, 500 g ai/ha, 0 to 100 scale (0 no effect, 100 complete control)

CCc1cc(-c2ccc(C(F)(F)F)cc2)nn1-c1c(O)cnn(C)c1=O [Compound 11, 4-[5-ethyl-3-[4-(trifluoromethyl)phenyl]-1H-pyrazol-1-yl]-5-hydroxy-2-methyl-3(2H)-pyridazinone]
Plant response rating, Windgrass ([1]; 16 g ai/ha, scale 0 to 100): 100
Plant response rating, Windgrass [1, 16]: 100
Plant response rating, Windgrass ([1]; 62 g ai/ha, scale 0 to 100): 100
Plant response rating, Windgrass ([1]; 125 g ai/ha, scale 0 to 100): 100
Plant response rating, Chickweed ([2]; 16 g ai/ha, scale 0 to 100): 0
Plant response rating, Chickweed [2, 16]: 0
Plant response rating, Chickweed ([2]; 62 g ai/ha, scale 0 to 100): 0
Plant response rating, Chickweed ([2]; 125 g ai/ha, scale 0 to 100): 0
Plant response rating, Canarygrass ([3]; 16 g ai/ha, scale 0 to 100): 80
Plant response rating, Canarygrass [3, 16]: 100
Plant response rating, Canarygrass ([3]; 62 g ai/ha, scale 0 to 100): 100
Plant response rating, Canarygrass ([3]; 125 g ai/ha, scale 0 to 100): 100
Plant response rating, Barley ([4]; 16 g ai/ha, scale 0 to 100, 0 no effect, 100 complete control): 90
Plant response rating, Barley [4, 16]: 95
Plant response rating, Barley ([4]; 62 g ai/ha, scale 0 to 100): 100
Plant response rating, Barley ([4]; 125 g ai/ha, scale 0 to 100): 100
pest or weed control at 62 g/ha [5, 17]: 30%
pest or weed control at 125 g/ha [5, 18]: 40%
pest or weed control at 250 g/ha [5, 19]: 40%
pest or weed control at 31 g/ha [5, 20]: 30%
plant injury at 62 g/ha [6, 17]: 30%
plant injury at 125 g/ha [6, 18]: 60%
plant injury at 250 g/ha [6, 19]: 70%
plant injury at 31 g/ha [6, 20]: 0%
pest or weed control at 62 g/ha [7, 17]: 50%
pest or weed control at 125 g/ha [7, 18]: 65%
pest or weed control at 250 g/ha [7, 19]: 75%
pest or weed control at 31 g/ha [7, 20]: 40%
pest or weed control at 62 g/ha [8, 17]: 0%
pest or weed control at 125 g/ha [8, 18]: 0%
pest or weed control at 250 g/ha [8, 19]: 40%
pest or weed control at 31 g/ha [8, 20]: 0%
pest or weed control at 125 g/ha [9, 21]: 90%
pest or weed control at 500 g/ha [9, 21]: 100%
pest or weed control at 125 g/ha [9, 22]: 100%
pest or weed control at 500 g/ha [9, 22]: 100%
pest or weed control at 125 g/ha [10, 21]: 90%
pest or weed control at 500 g/ha [10, 21]: 100%
pest or weed control at 125 g/ha [10, 22]: 100%
pest or weed control at 500 g/ha [10, 22]: 100%
Plant response rating, Velvetleaf [11, 23]: 0
Plant response rating, Velvetleaf [11, 24]: 0
Plant response rating, Velvetleaf [11, 25]: 0
Plant response rating, Velvetleaf [11, 26]: 0
Corn plant response rating (crop injury, 0 = no effect, 100 = complete kill) at 125 g/ha [12, 21]: 90%
Corn plant response rating (crop injury, 0 = no effect, 100 = complete kill) at 500 g/ha [12, 21]: 90%
Corn plant response rating (crop injury, 0 = no effect, 100 = complete kill) at 125 g/ha [12, 22]: 90%
Corn plant response rating (crop injury, 0 = no effect, 100 = complete kill) at 500 g/ha [12, 22]: 100%
Plant response rating, Morningglory [13, 23]: 0
Plant response rating, Morningglory [13, 24]: 0
Plant response rating, Morningglory [13, 25]: 0
Plant response rating, Morningglory [13, 26]: 30
pest or weed control at 125 g/ha [14, 21]: 100%
pest or weed control at 500 g/ha [14, 21]: 100%
pest or weed control at 125 g/ha [14, 22]: 100%
pest or weed control at 500 g/ha [14, 22]: 100%
pest or weed control at 125 g/ha [15, 21]: 0%
pest or weed control at 500 g/ha [15, 21]: 0%
pest or weed control at 125 g/ha [15, 22]: 0%
pest or weed control at 500 g/ha [15, 22]: 30%
